Source: US20050245465A1, “Compounds for treating Alzheimer's disease and for inhibiting beta-amyloid peptitde production” (priority 2004, published 2005)
“Also recorded” adds a separate entry of the source.

Columns and labels:
[1] = tested on: Neuro2a cells expressing the human Swedish mutant form of APP; assay: Aβ generation in Neuro2a-SW cells; assay type: cell-based, mouse; details: for levels of Aβ42 / production of Aβ42: Neuro2a-SW, also CHO cells expressing wild-type human APP
Excerpt: FIG. 16 depicts the effects of two major metabolites of ginsenosides, including 20(S)-protopanaxatriol (PPT) and 20(S)-protopanaxadiol (PPD) on Aβ42 generation. 20(S)-panaxatriol (PT) and 20(S)-panaxadiol (PD) are the artificial derivatives of PPT and PPPD, respectively.
Ginsenosides are metabolized by human intestinal bacteria after oral administration of ginseng extract (Kobayashi K., et al., Metabolism of ginsenoside by human intestinal bacteria [II] Ginseng Review 1994; 18: 10-14; Hasegawa H., et al., Main ginseng saponin metabolites formed by intestinal bacteria. Planta Med. 1996; 62: 453-457.). Therefore, the effects of two major metabolites of ginsenosides, including 20(S)-protopanaxatriol (PPT) and 20(S)-protopanaxadiol (PPD) on Aβ42 generation were tested. 20(S)-panaxatriol (PT) and 20(S)-panaxadiol (PD) are the artificial derivatives of PPT and PPPD, respectively.

[2] = tested on: CHO cells expressing human APP; assay: Secreted Aβ40/Aβ42 ELISA in medium of CHO-APP cells; assay type: cell-based, Chinese hamster; set-up: key to Aβ42-lowering activity: Aβ42-lowering activity (“Yes”); no profound effects (“No”); non-determined (“ND”); Ginsenosides that affected cell viability are indicated as “Cytotoxic.”; details: for Aβ42-lowering activity: Tables 1-3; for inhibitory effects on Aβ40 and Aβ42 production: 8 hours of incubation, ginsenosides from white ginseng
Description: The CHO cells were treated with the indicated compounds (at 50 μg/ml) for 8 hrs. Aβ42 levels in the medium were measured by ELISA and normalized to intracellular full-length APP.
The potential effects of ginsenosides and their analogues in treating AD were examined. First, a number of ginsenosides were screened based on their effects on Aβ generation. The effects of various ginsenosides on Aβ (e.g., Aβ40 and Aβ42) production was initially accessed by incubating the Chinese hamster ovary (CHO) cells expressing human APP(CHO-APP cells) with each ginsenoside purified from unprocessed ginseng (known as “white ginseng”). These representative ginsenosides included Rb1, Rb2, Rc, Rd, Re, Re, Rg1 and Rg2 and differ in their side chains and sugar moieties.
After 8 hours of incubation, the media were collected and the levels of secreted Aβ40 and Aβ42 were determined by ELISA.
Steaming ginseng at high temperature gave rise to additional ginsenosides with enhanced pharmacological activity, including (20S)Rg3, Rk1 and Rg5 (22-25). Next, the effects of these heat-processing derived ginsenosides (e.g., (20S)Rg3, Rh1, Rh2, Rk1, Rg6, Rg5) on Aβ40 and Aβ42 generation were tested. […] In contrast, Aβ42 levels were not affected by (20R)Rg3, Rh1, and Rg6. Aβ40 levels were not changed by treatment with any of the ginsenosides tested. The potency of Aβ42-lowering activity was highest with Rk1 and (20S)Rg3. […] The secretion of Aβ40 was affected by treatment with Rk1 only at very high concentration (˜100 μM) and cell viability was not affected by treatment of Rk1 under these conditions (up to 100 μM, 8 hour treatment; data not shown). […] Overnight treatment with Rgk351, Rk1, and Rg5 also reduce Aβ42 production in CHO-APP cells (FIG. 12B). […] These studies provide a structure-activity relationship between the chemical structures of ginsenosides and Aβ42-lowering activity, further providing the basis for designing additional Aβ42-lowering analogues as well as for defining a class of compounds that harbor Aβ42-lowering activity.

CHO-APP/PS1 cells = assay: Secreted Aβ40/Aβ42 ELISA in CHO-APP/PS1 cells; assay type: cell-based, Chinese hamster; details: 50 μM, 8 hrs
Description: FIG. 10 depicts the effects of native ginsenosides on Aβ42 production. CHO cells stably transfected with human APP695 together with either wild-type (A, CHO-APP/PS1 cells) or ΔE9 FAD mutant (B, CHO-APP/ΔE9PS1 cells) forms of PS1 were used. Cells were treated with the indicated compounds (at 50 μM) for 8 hrs. Levels of secreted Aβ40 and Aβ42 in the medium were determined by ELISA and normalized to intracellular full-length APP. In CHO-APP/PS1 cells, average Aβ amounts in control samples were 320 pM for Aβ40 and 79 pM for Aβ42. The relative levels of Aβ and Aβ42 were normalized to values obtained from non-treated and vehicle-treated cells and are shown as % to control+s.d.). One of three representative experiments are shown.
CHO-APP/PS1 (A) and CHO-APP/ΔE9PS1 (B) cells were treated with the indicated compounds at 50 μM for 8 hrs and the levels of secreted Aβ40 and Aβ42 were determined as described in FIG. 1. […] The PS1-ΔE9 FAD mutation diminished the Aβ42 response to Rk1 treatment (B).

γ-secretase [3] = assay: Cell-free generation of intracellular domains (AICD, NICD, p75-ICD) in membrane fractions of 293 cells; assay type: biochemical; details: membrane fractions from 293 cells overexpressing APP, Notch-ΔE or p75-ΔE
Description: Membrane fractions isolated from 293 cells overexpressing either APP (A), Notch-ΔE (B) or p75-ΔE (C) and incubated in the presence of indicated compounds: Compound E (CpdE, general γ-secretase inhibitor), Rgk351, Rk1 and sulindac sulfide (SS).
Since the effect of Rk1 was rather selective to Aβ42 (but not Aβ40) in a cell-based assay, the question of whether Rk1 affects other γ-secretase-mediated cleavage events, including the generation of AICD resulted from a transmembrane cleavage of APP distal from either Aβ40 or Aβ42 site, and γ-secretase-mediated intramembrane cleavage of Notch1 or p75 neurotrophin receptor (p75NTR) to yield Notch1 or p75NTR intracellular domains (NICD or p75-ICD, respectively) was tested. The cell-free generation of AICD, NICD and p75-ICD was not affected by incubation with Rgk351 or Rk1 (FIG. 5).

γ-secretase [4] = assay: Cell-free γ-secretase assay (CHAPSO-solubilized membrane fractions, Aβ ELISA); assay type: biochemical; details: cell-free γ-secretase assay, partially purified γ-secretase complex; 100 μM
Description: (A) CHAPSO-solubilized membrane fractions were incubated with recombinant γ-secretase substrates together with the indicated compounds (at 100 μM) and the levels of Aβ42 and Aβ40 were determined by ELISA as described (27-29). (B) Dose-response of Aβ40 and Aβ42-lowering activity of Rk1 and (20S)Rg3 in a cell-free γ-secretase assay.
Next, the inhibitory effects of Rk1 and (20S)Rg3 on Aβ generation in an in vitro γ-secretase assay was studied. […] In contrast, naproxen, an NSAID without Aβ42-lowering activity, had no effects on Aβ42 production (FIG. 15A).

CC(C)=CCCC(C)(O)[C@H]1CC[C@]2(C)[C@@H]1[C@H](O)C[C@@H]1[C@@]3(C)CC[C@H](O)C(C)(C)[C@@H]3CC[C@]12C (stereo in doubt) [PPD, Protopanaxadiol]
inhibitory effects on Aβ40 or Aβ42 generation [1]: did not confer any inhibitory effects | Aβ42-lowering activity [2]: No

CC(C)=CCC[C@@](C)(O)[C@H]1CC[C@]2(C)[C@@H]1[C@H](O)C[C@@H]1[C@@]3(C)CC[C@H](O[C@@H]4O[C@H](CO)[C@@H](O)[C@H](O)[C@H]4O[C@@H]4O[C@H](CO)[C@@H](O)[C@H](O)[C@H]4O)C(C)(C)[C@@H]3CC[C@]12C [(20R)Rg3]
generation of Aβ42 (Aβ42 levels in the medium, ELISA, normalized to intracellular full-length APP) ([2]; CHO cells stably transfected with human APP695, 50 μg/ml, 8 hrs): reduce | Aβ42-lowering activity [2]: Yes | secretion of Aβ42 (initial screening) ([2]; heat-processing derived ginsenosides): not affected | potency of Aβ42-reducing activity (order) (CHO-APP/PS1 cells): Rk1>/=(20S)Rg3>Rg5>(20R)Rg3

C[C@H](NC(=O)Cc1cc(F)cc(F)c1)C(=O)N[C@H]1N=C(c2ccccc2)c2ccccc2N(C)C1=O [Compound E]
cell-free generation of AICD, NICD and p75-ICD (γ-secretase [3]): Very low amounts; also recorded: efficiently inhibited

CC1(C)CCC[C@](C)([C@H]2CC[C@]3(C)[C@@H]2[C@H](O)C[C@@H]2[C@@]4(C)CC[C@H](O)C(C)(C)[C@@H]4CC[C@]23C)O1 [PD, 20(S)-panaxadiol]
inhibitory effects on Aβ40 or Aβ42 generation [1]: did not confer any inhibitory effects

CC(C)=CCC[C@](C)(O)[C@H]1CC[C@]2(C)[C@@H]1[C@H](O)C[C@@H]1[C@@]3(C)CC[C@H](O)C(C)(C)[C@@H]3[C@@H](O)C[C@]12C [PPT, Protopanaxatiol]
levels of Aβ42 [1]: without affecting | production of Aβ42 [1]: reduced | Aβ42-lowering activity [2]: Yes

CC1(C)CCC[C@](C)([C@H]2CC[C@]3(C)[C@@H]2[C@H](O)C[C@@H]2[C@@]4(C)CC[C@H](O)C(C)(C)[C@@H]4[C@@H](O)C[C@]23C)O1 [PT, 20(S)-panaxatriol]
levels of Aβ42 [1]: without affecting | production of Aβ42 [1]: reduced

CC(C)=CCC[C@](C)(O[C@@H]1O[C@H](CO[C@@H]2O[C@H](CO)[C@@H](O)[C@H](O)[C@H]2O)[C@@H](O)[C@H](O)[C@H]1O)[C@H]1CC[C@]2(C)[C@@H]1[C@H](O)C[C@@H]1[C@@]3(C)CC[C@H](O[C@@H]4O[C@H](CO)[C@@H](O)[C@H](O)[C@H]4O[C@@H]4O[C@H](CO)[C@@H](O)[C@H](O)[C@H]4O)C(C)(C)[C@@H]3CC[C@]12C [Rb1]
inhibitory effects on Aβ40 and Aβ42 production [2]: None | Aβ42-lowering activity [2]: No

CC(C)=CCC[C@](C)(O[C@@H]1O[C@H](CO[C@@H]2OC[C@H](O)[C@H](O)[C@H]2O)[C@@H](O)[C@H](O)[C@H]1O)[C@H]1CC[C@]2(C)[C@@H]1[C@H](O)C[C@@H]1[C@@]3(C)CC[C@H](O[C@@H]4O[C@H](CO)[C@@H](O)[C@H](O)[C@H]4O[C@@H]4O[C@H](CO)[C@@H](O)[C@H](O)[C@H]4O)C(C)(C)[C@@H]3CC[C@]12C [Rb2]
inhibitory effects on Aβ40 and Aβ42 production [2]: None | Aβ42-lowering activity [2]: No

CC(C)=CCC[C@](C)(O[C@@H]1O[C@H](CO[C@@H]2OC[C@@H](O)[C@H](O)[C@H]2O)[C@@H](O)[C@H](O)[C@H]1O)[C@H]1CC[C@]2(C)[C@@H]1[C@H](O)C[C@@H]1[C@@]3(C)CC[C@H](O[C@@H]4O[C@H](CO)[C@@H](O)[C@H](O)[C@H]4O[C@@H]4O[C@H](CO)[C@@H](O)[C@H](O)[C@H]4O)C(C)(C)[C@@H]3CC[C@]12C [Rb3]
Aβ42-lowering activity [2]: No

CC(C)=CCC[C@](C)(O[C@@H]1O[C@H](CO)[C@@H](O)[C@H](O)[C@H]1O)[C@H]1CC[C@]2(C)[C@@H]1[C@H](O)C[C@@H]1[C@@]3(C)CC[C@H](O)C(C)(C)[C@@H]3[C@@H](O[C@@H]3O[C@H](CO)[C@@H](O)[C@H](O)[C@H]3O)C[C@]12C [Rg1]
inhibitory effects on Aβ40 and Aβ42 production [2]: None | Aβ42-lowering activity [2]: No | production of Aβ42 in cells (summary statement) ([2]; mammalian cells, in vitro): no amyloid reducing activity in vitro

C=C(CCC=C(C)C)[C@H]1CC[C@]2(C)[C@@H]1[C@H](O)C[C@@H]1[C@@]3(C)CC[C@H](O)C(C)(C)[C@@H]3[C@@H](O[C@@H]3O[C@H](CO)[C@@H](O)[C@H](O)[C@H]3O)C[C@]12C [Rk3]
Aβ42-lowering activity [2]: No

COc1ccc2cc([C@H](C)C(=O)O)ccc2c1 [naproxen, reference compound]
Aβ42 generation in vitro (γ-secretase [4]): no effects

CSc1ccc(/C=C2/C(C)=C(CC(=O)O)c3cc(F)ccc32)cc1 [sulindac sulfide, reference compound]
Aβ42 generation in vitro (γ-secretase [4]): potently inhibited | cell-free generation of AICD, NICD and p75-ICD (γ-secretase [3]): abundantly produced | cell-free generation of AICD, NICD and p75-ICD (γ-secretase [3]; listed as sulinac sulfide): did not affect | Aβ40 production ([2]; overnight treatment, CHO-APP cells): slightly affected
